# In patent US20140039803A1, “Method for Rapid Identification of Drug Targets and Drug Mechanisms of Action in Human Cells” (THE ROCKEFELLER UNIVERSITY, priority 2011, published 2014):
# “And” between values parts separate entries of the source, which are not always exact repeats. Equal values may be shown once. Read-outs that look alike come from different tables or passages of the source.
# Legend:
# [1] = system: BI-2536-resistant clones of HCT-116 cells; assay: Cell proliferation assay (WST1), LD50; assay type: cell-based, human
# [2] = system: HCT-116 cells (parental); assay: Cell proliferation assay (WST1), LD50; assay type: cell-based, human
# [3] = target: PLK3 (Homo sapiens, UniProt Q9H4B4); conditions: cited from earlier work
# [4] = system: HCT-116 cells; assay: Spindle phenotype with BI-2536 treatment; assay type: cell-based, human
# [5] = system: BI-2536-resistant clones of HCT-116 cells; assay: Spindle phenotype with BI-2536 treatment; assay type: cell-based, human
# [6] = target: PLK2 (Homo sapiens, UniProt Q9NYY3); conditions: cited from earlier work
# [7] = system: related motor proteins; conditions: in vitro; cited from earlier work
# [8] = system: hTERT-RPE1 cells stably expressing GFP-PSMB5 wild type or mutants; assay: Proliferation assay, bortezomib treatment; assay type: cell-based, human; conditions: stable expression of GFP-tagged PSMB5 mutants
# [9] = system: bortezomib-resistant clones of HCT-116 cells; conditions: for LD50: Table 4, mean ± s.e.m., n = 3
# PLK2, sequence (Q9NYY3 whole entry, species assumed): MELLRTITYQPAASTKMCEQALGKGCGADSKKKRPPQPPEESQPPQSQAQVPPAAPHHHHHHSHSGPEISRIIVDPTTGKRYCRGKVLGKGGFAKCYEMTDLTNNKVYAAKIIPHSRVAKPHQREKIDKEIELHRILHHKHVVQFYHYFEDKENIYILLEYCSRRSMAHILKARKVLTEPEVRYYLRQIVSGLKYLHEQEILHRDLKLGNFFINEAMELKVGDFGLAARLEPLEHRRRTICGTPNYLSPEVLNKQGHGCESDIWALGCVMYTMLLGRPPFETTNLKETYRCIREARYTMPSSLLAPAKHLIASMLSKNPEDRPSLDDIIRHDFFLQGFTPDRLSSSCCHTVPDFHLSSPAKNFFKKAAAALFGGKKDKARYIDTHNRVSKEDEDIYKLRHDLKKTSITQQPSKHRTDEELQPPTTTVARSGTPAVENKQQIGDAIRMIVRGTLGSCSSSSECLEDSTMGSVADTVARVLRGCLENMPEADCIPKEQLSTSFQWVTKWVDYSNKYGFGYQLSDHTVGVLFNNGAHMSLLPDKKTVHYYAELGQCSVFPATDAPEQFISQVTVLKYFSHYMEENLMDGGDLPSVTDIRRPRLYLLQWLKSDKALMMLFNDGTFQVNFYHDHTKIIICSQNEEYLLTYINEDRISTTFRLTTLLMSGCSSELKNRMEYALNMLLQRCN
# PLK3, sequence (Q9H4B4 whole entry): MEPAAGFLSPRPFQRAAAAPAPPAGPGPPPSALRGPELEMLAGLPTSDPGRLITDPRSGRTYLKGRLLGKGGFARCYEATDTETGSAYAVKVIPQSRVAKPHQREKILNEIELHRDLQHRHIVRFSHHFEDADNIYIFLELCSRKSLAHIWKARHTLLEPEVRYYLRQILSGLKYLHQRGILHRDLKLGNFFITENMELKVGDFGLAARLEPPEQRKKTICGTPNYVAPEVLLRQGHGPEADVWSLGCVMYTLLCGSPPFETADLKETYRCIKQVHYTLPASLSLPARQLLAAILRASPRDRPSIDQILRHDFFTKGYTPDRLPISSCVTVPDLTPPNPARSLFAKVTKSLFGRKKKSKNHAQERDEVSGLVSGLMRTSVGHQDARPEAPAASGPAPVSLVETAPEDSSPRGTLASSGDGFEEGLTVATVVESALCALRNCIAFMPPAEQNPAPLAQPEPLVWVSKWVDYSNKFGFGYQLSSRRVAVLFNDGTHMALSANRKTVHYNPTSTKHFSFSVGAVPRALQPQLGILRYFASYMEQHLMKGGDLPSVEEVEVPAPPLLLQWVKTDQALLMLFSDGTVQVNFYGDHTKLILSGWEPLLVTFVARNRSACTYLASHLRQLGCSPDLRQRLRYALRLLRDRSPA
structure (smiles),measurement,setting,value
CC[C@@H]1C(=O)N(C)c2cnc(Nc3ccc(C(=O)NC4CCN(C)CC4)cc3OC)nc2N1C1CCCC1 [BI-2536],LD50,"[1]; Example 1, Table 1, clone A, mean ± s.d.",24.7 ± 5.9 nM
same,LD50,"[1]; Example 1, Table 1, clone B, mean ± s.d.",22.9 ± 5.3 nM
same,LD50,"[1]; Example 1, Table 1, clone C, mean ± s.d.",12.6 ± 2.6 nM
same,LD50,"[1]; Example 1, Table 1, clone D, mean ± s.d.",27.6 ± 2.4 nM
same,LD50,"[1]; Example 1, Table 1, clone E, mean ± s.d.",35.9 ± 9.9 nM
same,LD50,"[1]; Example 1, Table 1, clone F, mean ± s.d.",33.4 ± 7.5 nM
same,LD50,"[1]; Example 2, Table 3, clone A, n = 3, mean ± s.d.",34.9 ± 13.0 nM
same,LD50,"[1]; Example 2, Table 3, clone B, n = 3, mean ± s.d.",33.5 ± 2.6 nM
same,LD50,"[1]; Example 2, Table 3, clone C, n = 3, mean ± s.d.",27.2 ± 8.6 nM
same,LD50,"[1]; Example 2, Table 3, clone D, n = 3, mean ± s.d.",14.2 ± 7.8 nM
same,LD50,"[1]; Example 2, Table 3, clone E, n = 3, mean ± s.d.",21.1 ± 5.7 nM
same,LD50,"[1]; Example 2, Table 3, clone F, n = 3, mean ± s.d.",27.5 ± 13.3 nM
same,LD50,"[2]; Example 1, Table 1, parental HCT-116, mean ± s.d.",3.9 nM and 3.9 ± 1.0 nM
same,LD50,"[2]; Example 2, Table 3, parental HCT-116, n = 3, mean ± s.d.",3.9 nM and 3.9 ± 2.8 nM
same,activity in vitro,[3],active
same,normal bipolar spindles,[4],11±3%
same,bipolar spindles,"[5]; BI-2536 treatment, drug-resistant clone B",46±4%
same,reduction in bipolar spindles associated with BI-2536 treatment,"[5]; Example 1: clones A, B and C",suppressed
same,activity in vitro,[6],active
"c1ccc(C2(c3nc(-c4ccncc4)cs3)CC2)cc1 [PCTP, 4-(2-(1-phenylcyclopropyl)thiazol-4-yl)pyridine]",selectivity over related motor proteins,[7],inhibit other related motor proteins
"N[C@@H](CSC(c1ccccc1)(c1ccccc1)c1ccccc1)C(=O)O [STLC, S-trityl-L-cysteine]",selectivity over related motor proteins,[7],selective
CC(C)C[C@H](NC(=O)[C@H](Cc1ccccc1)NC(=O)c1cnccn1)B(O)O [bortezomib],effect of expression of PSMB5 M104V or A108T on bortezomib sensitivity,[8],suppressed bortezomib sensitivity
same,LD50,"[2]; Example 3, Table 4, parental HCT-116, mean ± s.e.m., n = 3",6.3 ± 0.9 nM
same,LD50,"[2]; HCT-116 cells, text of Example 3",6.3±0.9 nm
same,LD50,[9]; clone A,19.4 ± 6.7 nM
same,LD50,[9]; clone B,15.3 ± 6.2 nM
same,LD50,[9]; clone C,17.8 ± 6.0 nM
same,LD50,[9]; clone D,17.2 ± 5.4 nM
same,LD50,[9]; clone E,41.5 ± 9.5 nM
same,LD50 of resistant clones relative to parental cell line,"[9]; five clones with reduced bortezomib sensitivity, fold higher",2.4-6.5 fold
CC(=O)O[C@H]1C(=O)[C@@]2(C)[C@H]([C@H](OC(=O)c3ccccc3)[C@]3(O)C[C@H](OC(=O)[C@H](O)[C@@H](NC(=O)c4ccccc4)c4ccccc4)C(C)=C1C3(C)C)[C@]1(OC(C)=O)CO[C@@H]1C[C@@H]2O [taxol],sensitivity of clones compared with parental cell line,"[1]; Example 1: clones A, B and C",less sensitive than the parental cell line
same,sensitivity of clones compared with parental cell line,"[1]; Example 2: clones D, E and F, 20 nM (FIG. 11)",less sensitive than the parental cell line
